Results taken from patent US20100273694A1, “SURFACTANT COMPOSITION METHOD FOR PRODUCTION THEREOF AND COSMETIC COMPRISING SAID COMPOSITION” (EIFFAGE TRAVAUX PUBLICS, priority 2004, published 2010).

Experiment: Measurement of surface tension and critical micellar concentrations (rising drop tensiometer)
Type: physicochemical
Details: rising drop method; for CMC: critical micellar concentration; for γcmc: surface tension at the CMC
Procedure: The tensiometric measurements were carried out with a drop tensiometer operating by the method of the rising drop ([…] tensiometer, I.T. CONCEPT).

Compound	CMC	γcmc
9-octadecenyl betaine mesylate [Esters C18:1]	1.10^−4 M	36.6 mN/m
CCCCCCCCCCCCOS(=O)(=O)[O-].[Na+] [SDS (C12), sodium dodecyl sulphate, reference compound]	0.008 M	30.0 mN/m
betainylaminooctadecane mesylate [Amides C18:0]	0.00014 M	36.0 mN/m
betainylaminooctadecenyl mesylate [Amides C18:1]	0.00012 M	36.2 mN/m
octadecyl betaine mesylate [Esters C18:0]	8.10^−4 M	37.2 mN/m
